The conditions of series [1]: NCr nude mice bearing LNCaP xenografts, cited from earlier work; for accumulation in the liver: 4 h after injection; for accumulation in the kidney: after 4 h. An excerpt: The uptake of [^123I]PSMA-p-IB in normal organs, except in the salivary gland, gastrointestinal tract, and body, were low. […] This value was correlated with PSMA-p-IB that had been ^123I-labeled, which is non-residualizi ...

Series [2] can be described thus: In vivo biodistribution in normal mice. On the set-up: activity in the whole gastrointestinal tract (with contents): unit not given here. The conditions noted are these: female CD1 mice, i.v. tail vein, 80 pmol, 4 h p.i. How it is done: The mice were sacrificed at 4 h post-injection (p.i.) by cervical dislocation. A side-by-side comparison of the biodistribution of [^123I]PSMA-p-IB and [^177Lu]Lu-PSMA-617 in normal mice is shown in Figure 11. Biodistribution of [^123I]PSMA-p-IB at 4 h p.i. in CD1 mice reflects a low level of accumulation in almost all normal organs, except in the salivary gland, gastrointestinal tract, and the rest of the body. There were significant differences between the uptake of [^123I]PSMA-p-IB and [^177Lu]Lu-PSMA-617 in several normal organs. Low accumulation of both ligands was detected in muscle and bone. However, it was determined that the uptake of [^177Lu]Lu-PSMA-617 in muscle (0.1 ± 0.1 %ID/g) was noticeably lower than that of [^123I]PSMA-p-IB (0.2 ± 0.0 %ID/g). […] The activity of [^123I]PSMA-p-IB in blood was 1.3 ± 0.5 %ID/g. […] The activity in the blood for [^123I]PSMA-p-IB experiment was associated with […] labeled with ^123I, which is non-residualizing and is thought to result in the rapid excretion of radiometabolites. Additionally, this ligand lipophilicity might lead it to bind to proteins in the blood. […] This value was clearly higher than the [^177Lu]Lu-PSMA-617 accumulation in the same organ of 0.1 ± 0.0 %ID/g. This [^123I]PSMA-p-IB accumulation could be due to radioiodine catabolites. The activity in the whole gastrointestinal tract (with contents) and small intestine for [^123I]PSMA-p-IB was 12.4 ± 0.8 and 1.1 ± 0.2 %ID/g, respectively. Meanwhile, the activity of [^177Lu]Lu-PSMA-617 in the whole gastrointestinal tract (with contents) and small intestine was 1.2 ± 0.8 and 0.2 ± 0.1 %ID/g, respectively.
Remarkable results were observed whereby the accumulation of [^123I]PSMA-p-IB (0.9 ± 0.1 %ID/g) in the liver was substantially lower than that of [^177Lu]Lu-PSMA-617 (2.3 ± 0.2 %ID/g).
The biodistribution of [^123I]PSMA-p-IB and [^177Lu]Lu-PSMA-617 in normal mice was evaluated in 8 female CD1 mice (2 groups) of 6 weeks of age with an average weight of 31.8 ± 3.6 g. The mice were housed and cared for under standard conditions prior to use. Four mice were each injected intravenously through the tail vein with 40 kBq (80 pmol) of [^123I]PSMA-p-IB in 100 μL PBS with 10% ethanol. The remaining 4 mice were intravenously (i.v.) injected with 130 kBq (80 pmol) of [^177Lu]Lu-PSMA-617 in 100 μL PBS with 1% BSA per mouse. The mice were sacrificed 4 h after injection. Cervical dislocation was employed to sacrifice the anesthetized mice. The blood, tissues, and organs (salivary gland, lung, liver, spleen, small intestine, kidney, muscle, and bone) were excised, collected, and weighed. The ^123I and ^177Lu activities were simultaneously measured using a gamma-counter. The activity uptake was expressed as the percentage of injected activity per gram of organ (%ID/g).
Figure 11 Biodistribution of [^123I]PSMA-p-IB and […] in CD1 mice 4 h post-injection (p.i.). Data for the gastrointestinal tract (including the contents) and the body are presented as the %ID per whole sample. ns indicates p > 0.05, * indicates p ≤ 0.05, ** indicates p ≤ 0.01, *** indicates p ≤ 0.001 and **** indicates p ≤ 0.0001. The comparison study was performed by unpaired 2-tailed t-tests (95% confidence interval).

Where two headings read alike, the source gives them in different places.

Take `O=C(O)CC[C@H](NC(=O)N[C@@H](CCCCNCc1ccc([123I])cc1)C(=O)O)C(=O)O` [[^123I]MIP-1072]: in series [1], the “accumulation in the liver” value is given as 2.17 ± 0.67 %ID/g and the “accumulation in the kidney” value is listed as 35.7 ± 18.7 %ID/g.

Take `O=C(O)CC[C@H](NC(=O)N[C@@H](CCCCNC(=O)Nc1ccc([123I])cc1)C(=O)O)C(=O)O` [[^123I]MIP-1095]: in series [1], the “accumulation in the liver” value was 7.82 ± 1.01 %ID/g and the “accumulation in the kidney” value is 77.5 ± 16.5 %ID/g.

For [^177Lu]Lu-PSMA-617, in series [2] (n = 4, gamma counter), the accumulation in bone is 0.6 ± 0.1 %ID/g, the “accumulation in salivary glands” value amounted to 0.1 ± 0.0 %ID/g, the “accumulation in the liver” value is listed as 2.3 ± 0.2 %ID/g and the activity in blood turned out to be 0.1 ± 0.0 %ID/g. For the same compound, in series [2] (n = 4, gamma counter), the “activity in small intestine” value was determined as 0.2 ± 0.1 %ID/g, the uptake in muscle turned out to be 0.1 ± 0.1 %ID/g and the “uptake in the kidney” value amounted to 6.1 ± 3.7 %ID/g. Further, the “activity in the whole gastrointestinal tract (with contents)” value in series [2] (n = 4, Figure 11 legend: %ID per whole sample) is 1.2 ± 0.8.
